We go through 27 compounds from patent publication US20250388565A1, “ESTROGEN RECEPTOR ALPHA DEGRADERS AND METHODS OF USE THEREOF” (Relay Therapeutics, Inc., priority 2022, published 2025).

The target of the test is T1, ERα protein (HiBiT-tagged) in ESR1_HiBiT KI MCF7 cells (Homo sapiens, UniProt P03372).
T1 sequence (P03372 1-595): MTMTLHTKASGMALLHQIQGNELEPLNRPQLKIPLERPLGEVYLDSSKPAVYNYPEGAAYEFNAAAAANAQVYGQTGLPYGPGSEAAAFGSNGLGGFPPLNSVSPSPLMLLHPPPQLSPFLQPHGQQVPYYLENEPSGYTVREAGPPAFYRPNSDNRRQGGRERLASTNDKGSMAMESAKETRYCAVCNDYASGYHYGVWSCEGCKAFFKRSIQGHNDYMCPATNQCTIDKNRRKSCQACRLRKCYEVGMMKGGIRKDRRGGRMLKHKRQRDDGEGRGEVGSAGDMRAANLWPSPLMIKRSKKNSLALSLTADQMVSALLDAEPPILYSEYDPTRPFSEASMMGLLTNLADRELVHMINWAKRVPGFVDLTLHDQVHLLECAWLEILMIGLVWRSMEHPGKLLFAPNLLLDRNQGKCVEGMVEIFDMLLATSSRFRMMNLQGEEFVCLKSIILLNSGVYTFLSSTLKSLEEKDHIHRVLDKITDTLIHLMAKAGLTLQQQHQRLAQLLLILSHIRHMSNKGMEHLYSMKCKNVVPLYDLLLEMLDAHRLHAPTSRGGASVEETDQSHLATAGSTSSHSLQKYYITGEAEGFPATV
The experiment in a line: Nano Glo HiBiT Lytic Degradation Assay. The format is cell-based. The settings on record: 6 hours with compound, 14-point dose response 1:3, bell-shape curve fit, half-maximal effect of first Hill model, read-out: MCF7 ESR1 HiBiT - (DC50). The procedure, abridged: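 ESR1_HiBiT knock-in MCF7 cells were seeded 24 h before treatment, then exposed to compounds for 6 h at 37° C (14-point 1:3 curves, 10 mM top stock, 0.1% DMSO final, duplicates). HiBiT-ERα was read by lytic LgBiT luminescence, background-subtracted and normalized to DMSO. DC50 was taken from the half-maximal point of the first Hill component of a bell-shaped fit.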
For orientation: With HiBiT, luminescence reflects the tagged protein that the partner subunit can reach.
Usually DC50 stands for the midpoint of the concentration-degradation curve. For `CC(C)(O)[C@H]1CCc2cc(O)ccc2[C@H]1c1ccc(N2CCC(CN3CCN(c4ccc5c(c4)CN([C@H]4CCC(=O)NC4=O)C5=O)CC3)CC2)cc1` [Compound I-204, (S)-3-(5-(4-((1-(4-((1R,2S)-6-hydroxy-2-(2-hydroxypropan-2-yl)-1,2,3,4-tetrahydronaphthalen-1-yl)phenyl)piperidin-4-yl)methyl)piperazin-1-yl)-1-oxoisoindolin-2-yl)piperidine-2,6-dione], the 50% degradation concentration (DC50) was 2 nM.
As for `O=C1CC[C@H](N2Cc3cc(N4CCN(CC5CCN(c6ccc([C@@H]7c8ccc(O)cc8CC[C@@H]7CC7CCCC7)cc6)CC5)CC4)ccc3C2=O)C(=O)N1` [Compound I-121, (S)-3-(5-(4-((1-(4-((1R,2R)-2-(cyclopentylmethyl)-6-hydroxy-1,2,3,4-tetrahydronaphthalen-1-yl)phenyl)piperidin-4-yl)methyl)piperazin-1-yl)-1-oxoisoindolin-2-yl)piperidine-2,6-dione], the DC50 was determined as 3 nM.
As to `O=C1CC[C@H](N2Cc3cc(N4CCN(CC5CCN(c6ccc([C@@H]7c8ccc(O)cc8CC[C@@H]7c7cccc(OC(F)(F)F)c7)cc6)CC5)CC4)ccc3C2=O)C(=O)N1` (single isomer, unassigned) [Compound I-109], the DC50 is 1400 nM.
With `O=C1CC[C@H](N2Cc3cc(N4CCN(CC5CCN(c6ccc([C@H]7c8ccc(O)cc8CO[C@@]78CCCc7ccccc78)cc6)CC5)CC4)ccc3C2=O)C(=O)N1` (single isomer, unassigned) [Compound I-273], the DC50 was determined as 6 nM.
For `CC(C)C[C@H]1CC(F)(F)c2cc(O)ccc2[C@H]1c1ccc(N2CCC(CN3CCN(c4ccc5c(c4)CN([C@H]4CCC(=O)NC4=O)C5=O)CC3)CC2)cc1` [Compound I-197, (S)-3-(5-(4-((1-(4-((1R,2S)-4,4-difluoro-6-hydroxy-2-isobutyl-1,2,3,4-tetrahydronaphthalen-1-yl)phenyl)piperidin-4-yl)methyl)piperazin-1-yl)-1-oxoisoindolin-2-yl)piperidine-2,6-dione], the DC50 turned out to be 0.49 nM.
As to `O=C1CC[C@H](N2Cc3cc(N4CCN(CC5CCN(c6ccc([C@H]7c8ccc(O)cc8CC[C@H]7C7CCC8(CC7)CC8)cc6)CC5)CC4)ccc3C2=O)C(=O)N1` [Compound I-145], the DC50 is at least 10000 nM.
For `O=C1CC[C@H](N2Cc3cc(N4CCN(CC5CCN(c6ccc([C@@H]7c8ccc(O)cc8CC[C@]78CCc7ccccc78)cc6)CC5)CC4)ccc3C2=O)C(=O)N1` [Compound I-262, (S)-3-(5-(4-((1-(4-((1R,1′S)-6′-hydroxy-2,3,3′,4′-tetrahydro-1′H-spiro[indene-1,2′-naphthalen]-1′-yl)phenyl)piperidin-4-yl)methyl)piperazin-1-yl)-1-oxoisoindolin-2-yl)piperidine-2,6-dione], the DC50 was 2 nM.
Then `C[C@]1(C2CCCCC2)OCc2cc(O)ccc2[C@@H]1c1ccc(N2CCC(CN3CCN(c4ccc5c(c4)CN([C@H]4CCC(=O)NC4=O)C5=O)CC3)CC2)cc1` [Compound I-257, (S)-3-(5-(4-((1-(4-((3R,4S)-3-cyclohexyl-7-hydroxy-3-methylisochroman-4-yl)phenyl)piperidin-4-yl)methyl)piperazin-1-yl)-1-oxoisoindolin-2-yl)piperidine-2,6-dione], with 3300 nM.
Take `C[C@H]1C[C@@H](c2ccccc2)[C@@H](c2ccc(N3CCC(CN4CCN(c5ccc6c(c5)CN([C@H]5CCC(=O)NC5=O)C6=O)CC4)CC3)cc2)c2ccc(O)cc21` (single isomer, unassigned) [Compound I-331]: the DC50 was at least 10000 nM.
With `C[C@@H]1Cc2cc(O)ccc2[C@H](c2ccc(N3CCC(CN4CCN(c5ccc6c(c5)CN([C@H]5CCC(=O)NC5=O)C6=O)CC4)CC3)cc2)[C@@H]1c1ccccc1` [Compound I-333, (S)-3-(5-(4-((1-(4-((1S,2R,3R)-6-hydroxy-3-methyl-2-phenyl-1,2,3,4-tetrahydronaphthalen-1-yl)phenyl)piperidin-4-yl)methyl)piperazin-1-yl)-1-oxoisoindolin-2-yl)piperidine-2,6-dione], the DC50 is 21 nM.
Then `O=C1CC[C@H](N2Cc3cc(N4CCN(CC5CCN(c6ccc([C@H]7c8ccc(O)cc8CO[C@H]7C7CCCCC7)cc6)CC5)CC4)ccc3C2=O)C(=O)N1` [Compound I-250, (S)-3-(5-(4-((1-(4-((3S,4S)-3-cyclohexyl-7-hydroxyisochroman-4-yl)phenyl)piperidin-4-yl)methyl)piperazin-1-yl)-1-oxoisoindolin-2-yl)piperidine-2,6-dione], with 64 nM.
Regarding `O=C1CCN(c2ccc(N3CC[C@@]4(CCN(CC5CCN(c6ccc([C@@H]7c8ccc(O)cc8C(F)(F)C[C@@H]7c7ccccc7)cc6)CC5)C4)C3)cc2)C(=O)N1` (single isomer, unassigned) [Compound I-290], the DC50 was 0.22 nM.
For `O=C1CC[C@H](N2Cc3cc(N4CCN(CC5CCN(c6cc(F)c([C@H]7c8ccc(O)cc8CC[C@H]7c7ccccc7)c(F)c6)CC5)CC4)ccc3C2=O)C(=O)N1` [II-103], the DC50 is at least 10000 nM.
Regarding `O=C1CCC(N2Cc3cc(N4CCN(CC5CCN(c6ccc([C@H]7c8ccc(O)cc8CC[C@H]7C7CCCC7)cc6)CC5)CC4)ccc3C2=O)C(=O)N1` (single isomer, unassigned) [Compound I-53], the DC50 came out at 0.92 nM.
In the case of `CC1(C)CC([C@@H]2CCc3cc(O)ccc3[C@@H]2c2ccc(N3CCC(CN4CCN(c5ccc6c(c5)CN([C@H]5CCC(=O)NC5=O)C6=O)CC4)CC3)cc2)CC(C)(C)C1` [Compound I-117, (35)-3-[5-[4-[[1-[4-[(1R,2R)-6-hydroxy-2-(3,3,5,5-tetramethylcyclohexyl)tetralin-1-yl]phenyl]-4-piperidyl]methyl]piperazin-1-yl]-1-oxo-isoindolin-2-yl]piperidine-2,6-dione], the DC50 is at least 10000 nM.
`C[C@@H]1OC2(CCCCC2)[C@@H](c2ccc(N3CCC(CN4CCN(c5ccc6c(c5)CN([C@H]5CCC(=O)NC5=O)C6=O)CC4)CC3)cc2)c2ccc(O)cc21` (single isomer, unassigned) [Compound I-270]: the DC50 is at least 10000 nM.
As for `Cc1ccc(F)cc1[C@H]1OCc2cc(O)ccc2[C@H]1c1ccc(N2CCC(CN3CCN(c4ccc5c(c4)CN([C@H]4CCC(=O)NC4=O)C5=O)CC3)CC2)cc1` (single isomer, unassigned) [Compound I-357], the DC50 is 0.51 nM.
In the case of `O=C1CC[C@H](N2Cc3cc(N4CCN(CC5CCN(c6ccc([C@H]7c8ccc(O)cc8CO[C@H]7CC7CC7)cc6)CC5)CC4)ccc3C2=O)C(=O)N1` (single isomer, unassigned) [Compound I-231], the half-maximal degradation concentration (DC50) was at least 10000 nM.
Consider `Cc1cc([C@@H]2c3ccc(O)cc3CC[C@@H]2c2ccccc2)ccc1N1CCC(CN2CCN(c3ccc4c(c3)CN([C@H]3CCC(=O)NC3=O)C4=O)CC2)CC1` (single isomer, unassigned) [II-42], for which the DC50 was at least 10000 nM.
With `CC(C)C[C@H]1OCc2cc(O)ccc2[C@H]1c1ccc(N2CCC(CN3CCN(c4ccc5c(c4)CN([C@H]4CCC(=O)NC4=O)C5=O)CC3)CC2)cc1` (single isomer, unassigned) [Compound I-224], the DC50 came out at 0.48 nM.
Consider `C[C@H]1O[C@@H](C2CCCCC2)[C@H](c2ccc(N3CCC(CN4CCN(c5ccc6c(c5)CN([C@H]5CCC(=O)NC5=O)C6=O)CC4)CC3)cc2)c2ccc(O)cc21` (single isomer, unassigned) [Compound I-253], for which the DC50 is 0.45 nM.
`O=C1CC[C@H](N2Cc3cc(N4CCN(CC5CCN(c6ccc([C@@H]7c8ccc(O)cc8CO[C@@H]7C7CC7)cc6)CC5)CC4)ccc3C2=O)C(=O)N1` (single isomer, unassigned) [Compound I-242]: the DC50 is 3300 nM.
Then `O=C1CC[C@H](N2Cc3cc(N4CCN(CC5CCN(c6ccc([C@@H]7c8ccc(O)cc8CC[C@@H]7c7ccccc7)cc6F)CC5)CC4)ccc3C2=O)C(=O)N1` [II-82], with 0.84 nM.
Turning to `O=C1CC[C@H](N2Cc3cc(N4CCN(CC5CCN(c6ccc([C@H]7c8ccc(O)cc8CO[C@H]7C7CCC7)cc6)CC5)CC4)ccc3C2=O)C(=O)N1` [Compound I-244, (S)-3-(5-(4-((1-(4-((3S,4S)-3-cyclobutyl-7-hydroxyisochroman-4-yl)phenyl)piperidin-4-yl)methyl)piperazin-1-yl)-1-oxoisoindolin-2-yl)piperidine-2,6-dione], the half-maximal degradation concentration (DC50) was 4 nM.
On to `O=C1CC[C@H](N2Cc3cc(N4CCN(CC5CCN(c6ccc([C@@H]7c8ccc(O)cc8CC[C@@]78CCc7ccccc78)cc6)CC5)CC4)ccc3C2=O)C(=O)N1` [Compound I-260], for which the DC50 came out at 0.75 nM.
Regarding `O=C1CC[C@H](N2Cc3cc(N4CCN(C[C@H]5CCN(c6ccc([C@@H]7c8ccc(O)cc8CC[C@@H]7c7ccccc7)cc6)C5)CC4)ccc3C2=O)C(=O)N1` (single isomer, unassigned) [II-13], the DC50 was determined as 18 nM.
Then `O=C1CC[C@H](N2Cc3cc(N4CCN(C[C@@H]5CCN(c6ccc([C@@H]7c8ccc(O)cc8CC[C@@H]7c7ccccc7)cc6)C5)CC4)ccc3C2=O)C(=O)N1` (single isomer, unassigned) [II-32], with at least 10000 nM.
